Data from patent US20110136787A1, “DIPHENYL AZEPANE, DIAZEPANE AND OXAZEPANE DERIVATIVES AND USES THEREOF” (priority 2009, published 2011).

Tests used:
[1] = biological target: T1, Human Norepinephrine Transporter (hNET) (Homo sapiens, UniProt P23975); assay: hNET scintillation proximity assay (SPA), competition with [3H]-Nisoxetine; type: binding; settings: pKi, membranes of HEK-293 cells expressing recombinant hNET, read-out: NET (converted)
T1 construct: expressed in transfected cells; host or cells: HEK-293 (Clone: HEK-hNET #2), membrane preparation
T1 sequence (P23975 whole entry): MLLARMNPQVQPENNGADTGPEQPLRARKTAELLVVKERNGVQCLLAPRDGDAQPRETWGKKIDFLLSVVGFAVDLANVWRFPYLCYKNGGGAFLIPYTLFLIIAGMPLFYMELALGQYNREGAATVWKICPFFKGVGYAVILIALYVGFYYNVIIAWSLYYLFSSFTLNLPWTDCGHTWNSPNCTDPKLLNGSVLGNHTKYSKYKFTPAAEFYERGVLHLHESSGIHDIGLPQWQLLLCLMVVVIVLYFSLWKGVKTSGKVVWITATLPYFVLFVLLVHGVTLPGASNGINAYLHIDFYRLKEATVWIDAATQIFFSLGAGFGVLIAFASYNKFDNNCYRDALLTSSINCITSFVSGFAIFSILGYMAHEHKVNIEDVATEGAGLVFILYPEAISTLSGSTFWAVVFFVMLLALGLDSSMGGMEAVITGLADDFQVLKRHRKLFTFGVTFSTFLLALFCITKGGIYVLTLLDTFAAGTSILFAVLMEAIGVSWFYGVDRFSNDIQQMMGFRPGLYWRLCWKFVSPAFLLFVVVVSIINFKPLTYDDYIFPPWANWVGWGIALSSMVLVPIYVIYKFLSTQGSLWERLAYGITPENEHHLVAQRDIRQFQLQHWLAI
Method: Screening for compounds active at Human Norepinephrine Transporter (hNET) Using a Scintillation Proximity Assay (SPA)
This assay was used to determine the affinity of ligands for the hNET transporter by competition with [^3H]-Nisoxetine. As in the hSERT assay of the above example, receptor-containing membranes were pre-coupled to the SPA beads and the binding of the appropriate radioligand to the transporter was measured. The light emission was proportional to the amount of bound radioligand, with unbound radioligand producing no signal.
(§1) HEK-293 cells (Tatsumi et al., Eur. J. Pharmacol. 1997, 30, 249-258) stably expressing recombinant hNET (Clone: HEK-hNET #2) were maintained with media (DMEM hi glucose with 10% FBS, 300 ug/ml G418 and 2 mM L-Glutamine) and incubated at 37° C. with 5% CO2. Cells were released from culture flasks using PBS for 1-2 minutes. The cells were subsequently centrifuged at 1000 g′ s for 5 minutes and resuspended in PBS prior to being used in the membrane preparation.
(§2) Cell membranes were prepared using a membrane preparation buffer of 50 mM TRIS (pH 7.4). Cell membranes were prepared from a single cube (7.5×10^9 cells total). Cells were homogenized using a Polytron (setting medium for a 4 second burst). The homogenate was then centrifuged at 48,000×g for 15 minutes, the supernatant subsequently removed and discarded, and the pellet resuspended with fresh buffer. After a second centrifugation, the pellet was re-homogenized and brought to a final volume determined during the assay. Typically, membrane portions were aliquoted in 3-6 mg/ml (w:v). and stored at −80° C.
^3[H] Nisoxetine radioligand (Amersham Cat. # TRK942 or Perkin Elmer Cat. # NET1084, specific activity: 70-87 Ci/mmol, stock concentration: 1.22e-5 M, final concentration: 8.25e-9 M), and 50 mM Tris-HCl, 300 mM NaCl, (pH 7.4) buffers were used for Scintillation Proximity Assay IC50/Ki determination. Compounds of the invention were diluted from 10 mM to 0.1 nM FAC (10 point curves, whole log/half log dilutions) via a Beckman Biomek 2000 using a serial dilution protocol. The test compounds were then transferred (20 ul/well) and the radioligand was added at 50 ul/well. Membrane and beads were prepared to a ratio of […], with 0.7 mg PVT-WGA Amersham beads (Cat# RPQ0282V) added per well. […] of the membrane: bead mixture was added to the assay plate. The mixtures were allowed to stand at room temperature for one hour, and were then counted on a Packard TopCount LCS, a generic SPA counting protocol settings (Energy Range: Low, Efficiency Mode: Normal, Region A: 1.50-35.00, Region B: 1.50-256.00, Count Time (min.): 0.40, Background Subtract: none, Half-Life Correction: no, Quench Indicator: tSIS, Platemap blank subtraction: No, Cross talk reduction: Off).
(§3) The % inhibition was calculated for each compound tested [(Compound CPM at maximum concentration-Non-Specific CPM)/Total CPM*100]. The concentration producing 50% inhibition (IC50) was determined using an iterative non-linear curve fitting technique with Activity Base/Xlfit using the following equation:
(§4) where max=total binding, min=non specific binding, x=concentration (M) of the tested compound and n=Hill slope. The inhibition dissociation constant (Ki) of each compound was determined according to the method of Cheng-Prusoff and then converted into negative logarithm (pKi) of the Ki.

[2] = biological target: T2, Human Serotonin Transporter (hSERT) (Homo sapiens, UniProt P31645); assay: hSERT scintillation proximity assay (SPA), competition with [3H]-Citalopram; type: binding; settings: pKi, membranes of HEK-293 cells expressing recombinant hSERT, read-out: SERT (converted)
T2 construct: expressed in transfected cells; host or cells: HEK-293, membrane preparation
T2 sequence (P31645 whole entry): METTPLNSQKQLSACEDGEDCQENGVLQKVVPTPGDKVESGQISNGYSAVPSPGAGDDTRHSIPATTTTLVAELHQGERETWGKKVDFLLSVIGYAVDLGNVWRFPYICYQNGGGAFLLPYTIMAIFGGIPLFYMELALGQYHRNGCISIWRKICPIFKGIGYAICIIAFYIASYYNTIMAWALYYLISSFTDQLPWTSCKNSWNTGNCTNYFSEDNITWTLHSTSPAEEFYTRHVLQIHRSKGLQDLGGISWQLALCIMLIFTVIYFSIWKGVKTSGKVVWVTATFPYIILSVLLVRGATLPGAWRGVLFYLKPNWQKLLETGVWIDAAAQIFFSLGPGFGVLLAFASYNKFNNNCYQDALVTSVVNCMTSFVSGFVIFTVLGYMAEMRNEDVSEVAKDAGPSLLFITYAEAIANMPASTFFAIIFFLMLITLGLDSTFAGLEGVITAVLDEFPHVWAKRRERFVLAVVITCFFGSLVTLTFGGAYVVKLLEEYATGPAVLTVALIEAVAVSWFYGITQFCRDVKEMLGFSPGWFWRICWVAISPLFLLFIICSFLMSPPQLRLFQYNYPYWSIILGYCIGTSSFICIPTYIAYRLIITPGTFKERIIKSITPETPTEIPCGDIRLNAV
Text: Screening for Human Serotonin Transporter (hSERT) Antagonists Using a Scintillation Proximity Assay (SPA)
The screening assay of this example was used to determine the affinity of ligands at the hSERT transporter by competition with [^3H]-Citalopram.
Scintillation Proximity Assay (SPA) works by bringing radioligand within close proximity to the bead's scintillant to stimulate light emission. In this assay, the receptor-containing membranes were pre-coupled to the SPA beads and the binding of the appropriate radioligand to the transporter was measured. The light emission was proportional to the amount of bound radioligand. Unbound radioligand produced no signal as a result of distant proximity to scintillant (lack of energy transfer).
as §1, with “recombinant hSERT” for “recombinant hNET (Clone: HEK-hNET #2)”, “(DMEM high” for “(DMEM hi”, “Cells are” for “Cells were”
as §2, with “3” for “3-6”
For Scintillation Proximity Assay IC50/Ki determination, 50 mM Tris-HCl and 300 mM NaCl, (pH 7.4) buffers were utilized. Compounds of the invention were diluted from 10 mM to 0.1 nM FAC (10 point curves, whole log/half log dilutions) via a Beckman Biomek 2000 using a serial dilution protocol. The test compounds were then transferred (20 ul/well) and the [^3H]-Citalopram radioligand was added at 50 ul/well. Membrane and beads were prepared to a ratio of 10 ug:0.7 mg, with 0.7 mg PVT-WGA Amersham beads (Cat# RPQ0282V) added per well. 130 ul of the membrane: bead mixture was added to the assay plate. The mixtures were allowed to stand at room temperature for one hour, and were then counted on a Packard TopCount LCS, a generic Scintillation Proximity Assay counting protocol settings (Energy Range: Low, Efficiency Mode: Normal, Region A: 1.50-35.00, Region B: 1.50-256.00, Count Time (min.): 0.40, Background Subtract: none, Half-Life Correction: no, Quench Indicator: tSIS, Platemap blank subtraction: No, Cross talk reduction: Off).
as §3, with “[(Compound counts per minute (CPM)” for “[(Compound CPM”
as §4

SMILES	Ki [1]	Ki [2]
Clc1ccccc1C1CNCCCN1c1ccccc1 (centres unmarked) [Compound 20, 2-(2-Chloro-phenyl)-1-phenyl-[1,4]diazepane]	–	0.394 µM
Clc1ccc(C2CNCCCN2c2ccccc2)cc1 (centres unmarked) [Compound 16, 2-(4-Chloro-phenyl)-1-phenyl-[1,4]diazepane]	0.263 µM	0.339 µM
Fc1ccc(C2CCNCCN2c2ccccc2)cc1 (centres unmarked) [Compound 23, 7-(4-Fluoro-phenyl)-1-phenyl-[1,4]diazepane]	–	3.63 µM
c1ccc([C@H]2CNCCO[C@H]2c2ccccc2)cc1 [Compound 6, (6S,7R)-6,7-Diphenyl-[1,4]oxazepane]	0.417 µM	–
c1ccc(C2CNCCCN2c2ccccc2)cc1 (centres unmarked) [Compound 11, 1,2-Diphenyl-[1,4]diazepane]	0.282 µM	0.785 µM
Fc1ccc([C@@H]2OCCNC[C@@H]2c2ccccc2)cc1 [Compound 10, (6S,7R)-7-(4-Fluoro-phenyl)-6-phenyl-[1,4]oxazepane]	0.432 µM	0.234 µM
COc1ccc(C2CNCCCN2c2ccccc2)cc1 (centres unmarked) [Compound 14, 2-(4-Methoxy-phenyl)-1-phenyl-[1,4]diazepane]	–	0.164 µM
Fc1ccc(C2CNCCCN2c2ccccc2)cc1 (centres unmarked) [Compound 24, 2-(4-Fluoro-phenyl)-1-phenyl-[1,4]diazepane]	0.214 µM	–
COc1ccc([C@@H]2OCCNC[C@@H]2c2ccccc2)cc1 [Compound 8, (6S,7R)-7-(4-Methoxy-phenyl)-6-phenyl-[1,4]oxazepane]	–	0.0347 µM
Clc1ccc(C2CCNCCN2c2ccccc2)cc1 (centres unmarked) [Compound 15, 7-(4-Chloro-phenyl)-1-phenyl-[1,4]diazepane]	0.229 µM	0.407 µM
c1ccc(C2CCNCCN2c2ccccc2)cc1 (centres unmarked) [Compound 12, 1,7-Diphenyl-[1,4]diazepane]	0.335 µM	0.407 µM
c1ccc([C@H]2CNCCO[C@@H]2c2ccccc2)cc1 [Compound 5, (6S,7S)-6,7-Diphenyl-[1,4]oxazepane]	0.133 µM	0.684 µM
COc1ccc(C2CCNCCN2c2ccccc2)cc1 (centres unmarked) [Compound 13, 7-(4-Methoxy-phenyl)-1-phenyl-[1,4]diazepane]	0.676 µM	0.105 µM

Other lines, results leading:

Ki [1]	Ki [2]	SMILES
0.0309 µM	0.00398 µM	COc1ccccc1[C@H]1CCNCC[C@H]1c1ccccc1 [Compound 2, (4S,5R)-4-(2-Methoxy-phenyl)-5-phenyl-azepane]
0.275 µM	0.398 µM	Fc1ccccc1[C@@H]1OCCNC[C@@H]1c1ccccc1 [Compound 9, (6S,7R)-7-(2-Fluoro-phenyl)-6-phenyl-[1,4]oxazepane]
0.741 µM	0.468 µM	c1ccc([C@H]2CCNCC[C@@H]2c2ccccc2)cc1 [Compound 4, (4S,5S)-4,5-Diphenyl-azepane]
0.0772 µM	0.226 µM	c1ccc([C@H]2CCCNC[C@@H]2c2ccccc2)cc1 [Compound 3, (3S,4S)-3,4-Diphenyl-azepane]
0.422 µM	0.17 µM	COc1ccccc1C1CCNCCN1c1ccccc1 (centres unmarked) [Compound 17, 7-(2-Methoxy-phenyl)-1-phenyl-[1,4]diazepane]
2.04 µM	1.1 µM	COc1ccccc1C1CNCCCN1c1ccccc1 (centres unmarked) [Compound 18, 2-(2-Methoxy-phenyl)-1-phenyl-[1,4]diazepane]
0.124 µM	0.00933 µM	c1ccc([C@H]2CCNCC[C@H]2c2ccccc2)cc1 [Compound 1, (4S,5R)-4,5-Diphenyl-azepane]
0.219 µM	0.0733 µM	Clc1ccccc1C1CCNCCN1c1ccccc1 (centres unmarked) [Compound 19, 7-(2-Chloro-phenyl)-1-phenyl-[1,4]diazepane]
0.106 µM	0.398 µM	COc1ccccc1[C@@H]1OCCNC[C@@H]1c1ccccc1 [Compound 7, (6S,7R)-7-(2-Methoxy-phenyl)-6-phenyl-[1,4]oxazepane]
